Experimental data as given in US12559454B2, “Benzenesulfonamide derivatives and uses thereof” (2692372 Ontario, Inc., priority 2019, dated 2026).
Each block holds one compound with its values, some of them ahead of it.

Legend:
BTK [1] = biological target: T1, BTK (Homo sapiens, UniProt Q06187); assay: BTK washout experiment; format: biochemical; conditions: 400-fold dilution
Protocol: After a 3-h incubation of 40 nM BTK in the presence of 296 nM of compound I-A1, a 400-fold dilution was performed to remove excess inhibitor.
After a 6-h incubation of 50 nM BTK in the presence of 280 nM of compound 3A-6, a 400-fold dilution was performed to remove excess inhibitor.
By way of contrast, a “washout” experiment performed with ARQ-531 gives a very different result, because this compound lacks a warhead and is known to inhibit BTK reversibly. After a 6-h incubation of 50 nM BTK in the presence of 177 nM of ARQ-531, a 400-fold dilution was performed to remove excess inhibitor. […] This indicates to one of ordinary skill in the art that the enzyme was not inhibited irreversibly during the incubation with ARQ-531.

JAK3 = biological target: T2, JAK3 (Homo sapiens, UniProt P52333); assay: In vitro JAK3 inhibition (no preincubation); format: biochemical
T2 sequence (P52333 1-1124): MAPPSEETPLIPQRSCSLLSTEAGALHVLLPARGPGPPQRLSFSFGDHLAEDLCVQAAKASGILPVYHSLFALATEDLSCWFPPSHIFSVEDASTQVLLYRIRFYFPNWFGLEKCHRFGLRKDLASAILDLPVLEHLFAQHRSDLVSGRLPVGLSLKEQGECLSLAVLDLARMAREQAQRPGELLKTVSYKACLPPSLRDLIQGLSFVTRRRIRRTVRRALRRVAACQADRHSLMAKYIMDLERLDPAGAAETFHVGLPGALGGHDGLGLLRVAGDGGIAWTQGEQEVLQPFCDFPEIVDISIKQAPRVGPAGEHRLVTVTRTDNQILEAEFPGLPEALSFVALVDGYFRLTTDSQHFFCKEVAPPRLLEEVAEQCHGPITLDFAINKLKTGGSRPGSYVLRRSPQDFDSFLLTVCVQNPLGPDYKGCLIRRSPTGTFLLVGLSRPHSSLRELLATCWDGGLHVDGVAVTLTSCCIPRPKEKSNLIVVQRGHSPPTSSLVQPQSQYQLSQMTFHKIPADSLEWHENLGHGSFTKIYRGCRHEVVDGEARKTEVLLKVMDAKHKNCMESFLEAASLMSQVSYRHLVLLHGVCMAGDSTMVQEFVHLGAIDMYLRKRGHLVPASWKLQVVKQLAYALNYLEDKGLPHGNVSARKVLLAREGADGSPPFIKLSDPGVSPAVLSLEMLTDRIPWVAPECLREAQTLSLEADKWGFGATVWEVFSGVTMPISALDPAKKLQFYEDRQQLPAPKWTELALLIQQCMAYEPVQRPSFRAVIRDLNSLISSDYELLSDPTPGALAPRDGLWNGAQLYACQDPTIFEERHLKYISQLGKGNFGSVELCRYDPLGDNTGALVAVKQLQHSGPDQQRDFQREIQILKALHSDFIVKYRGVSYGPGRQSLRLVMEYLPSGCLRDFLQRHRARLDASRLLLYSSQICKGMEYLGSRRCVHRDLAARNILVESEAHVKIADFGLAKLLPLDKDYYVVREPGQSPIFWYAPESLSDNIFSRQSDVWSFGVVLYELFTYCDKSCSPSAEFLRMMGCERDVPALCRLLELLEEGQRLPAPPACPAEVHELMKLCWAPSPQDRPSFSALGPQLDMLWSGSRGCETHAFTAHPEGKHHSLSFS
Protocol: In vitro BTK and JAK3 inhibition studies are shown in Table 17 and Table 18 (no preincubation).

BTK [2] = biological target: T1, BTK; assay: In vitro BTK inhibition (no preincubation); format: biochemical
[3] = system: RL human non-Hodgkin's lymphoma B cell line; assay: In vitro efficacy in RL cells (Example G1); conditions: read-out: RL (IC50, μM)
[4] = system: RL human non-Hodgkin's lymphoma B cell line; assay: Cell viability in RL cells (Table 6); format: cell-based
[5] = system: normal primary human fibroblast (NHF) cell lines; assay: Toxicity study, CellTiter-Blue viability in normal primary human fibroblasts (NHF); format: cell-based; conditions: NHF cells, 72 hrs exposure
Protocol: Anti-cancer efficacy of exemplary compounds of this application was assessed in vitro in different cancer cell lines. Cell viability was examined following treatment at various concentration of inhibitor (0.097656-50 μM) using a cell Titer-Blue cell viability assay. 1×10^4 cells (NHF cells)/well were plated in 96-well assay plates in culture medium. All cells were grown in DMEM, IMDM and RPMI-1640 supplemented with 10% FBS. After 24 hrs, test compounds and vehicle controls were added to appropriate wells so the final volume was 100p in each well. The cells were cultured for the desired test exposure period (72 hrs) at 37° C. and 5% CO2. The assay plates were removed from 37° C. incubator and 20 μl/well of CellTiter-Blue® Reagent was added. The plates were incubated using standard cell culture conditions for 1-4 hours and the plates were shaken for 10 seconds and record fluorescence at 560/590 nm.
Representative data for exemplary compounds against select normal primary human fibroblast (NHF) cell lines are presented in the following Table 7.

BTK (His-tagged protein) = assay: Covalent modification of BTK by mass spectrometry (intact protein); format: binding; conditions: 10 μM BTK, 50 μM compound, 2 hours, 30° C.
Protocol: After incubation of 10 μM BTK in the presence of 50 μM of compound I-A1 for 2 hours at 30° C., the mass of the modified protein was determined by mass spectrometry. […] After incubation with inhibitor I-A1, the intensity of this had decreased by an order of magnitude, and the most intense peak is consistent with the protein whose mass was increased by 595 Da, corresponding closely to the expected mass of the inhibitor I-A1 (less one fluoride from inhibitor, and one proton from protein, 596 Da).

[6] = system: normal pooled human fibroblasts; assay: Viability of normal pooled human fibroblasts (Example G1); conditions: Fibroblast, read-out: Human Fibroblast (IC50, μM)
[7] = Parallel artificial membrane permeability assay (PAMPA), Example C4; format: in vitro ADME; conditions: PBS pH 7.4, 10 μM, 16 hours
Protocol: Assay Procedures. […] 7) Cover with plate lid. Vortex at 750 rpm for 100 seconds. […] Determine the compound concentrations by LC/MS/MS.

BTK [8] = biological target: T1, BTK; assay: BTK irreversible inhibition, enzyme kinetic analysis; format: biochemical
Protocol: One of ordinary skill in the art will recognize that this is consistent with the irreversible inhibition of BTK by compound I-A1.
One of ordinary skill in the art will recognize that this is consistent with the irreversible inhibition of BTK by compound I-A6.
One of ordinary skill in the art will recognize that this is consistent with the irreversible inhibition of BTK by compound 3A-2.
The shift of IC50 to a lower value after pre-incubation of the enzyme indicates to one of ordinary skill in the art that a significant portion of the enzyme was inhibited irreversibly during the incubation period.

BTK [9] = biological target: T1, BTK; assay: Selected kinase inhibition, BTK (Table 6); format: biochemical
[10] = Reactivity profiling with glutathione, LC/MS/MS; format: physicochemical; conditions: PBS buffer with 5 mM GSH, PBS pH 7.4, 25° C., 5 μM compound
Protocol: The experiment was started by placing 1 μL of 1 mM stocking solution of the test compound in DMSO in 199 μL of PBS buffer at pH 7.4 with 5 mM GSH to reach a final concentration of 5 μM. The final DMSO concentration was 0.5%. The solution was then incubated at 25° C. at 600 rpm, and was quenched with 600 μL solution of acetonitrile at 0, 30, 60 and 120 minutes. The quenched solution was vortexed for 10 minutes and centrifuged for 40 minutes at 3,220 g. An aliquot of 100 μL of the supernatant was diluted by 100 μL ultra-pure water, and the mixture was used for LC/MS/MS analysis. The data was processed and analyzed using Microsoft Excel.

T1 sequence (Q06187 whole entry, species assumed): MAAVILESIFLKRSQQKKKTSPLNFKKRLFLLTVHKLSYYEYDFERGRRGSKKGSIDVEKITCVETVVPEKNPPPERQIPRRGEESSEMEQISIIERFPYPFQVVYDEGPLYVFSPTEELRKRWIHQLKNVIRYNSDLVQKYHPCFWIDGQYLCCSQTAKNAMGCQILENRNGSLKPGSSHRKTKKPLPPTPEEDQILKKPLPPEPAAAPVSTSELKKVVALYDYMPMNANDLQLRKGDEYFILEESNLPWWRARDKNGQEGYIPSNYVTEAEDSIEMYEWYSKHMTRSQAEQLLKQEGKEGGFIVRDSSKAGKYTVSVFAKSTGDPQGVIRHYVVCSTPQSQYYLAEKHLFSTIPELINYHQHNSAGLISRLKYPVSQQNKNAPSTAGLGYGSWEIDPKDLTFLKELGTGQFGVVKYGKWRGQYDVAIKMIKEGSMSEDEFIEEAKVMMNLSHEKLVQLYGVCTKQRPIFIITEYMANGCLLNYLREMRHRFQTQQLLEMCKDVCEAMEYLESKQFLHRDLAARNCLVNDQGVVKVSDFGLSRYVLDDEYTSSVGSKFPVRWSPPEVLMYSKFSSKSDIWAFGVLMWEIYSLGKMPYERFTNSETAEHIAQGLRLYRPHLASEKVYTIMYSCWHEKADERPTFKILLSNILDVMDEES

residual activity of the enzyme (BTK [1]; 6-h incubation, 50 nM BTK, 177 nM compound, relative to DMSO): recovered all of its activity
SMILES: O=C(c1ccc(Oc2ccccc2)cc1Cl)c1c[nH]c2ncnc(N[C@@H]3CC[C@@H](CO)OC3)c12 [ARQ-531, reference compound]

IC50 (JAK3): 1000 to 10000 nM
SMILES: C[C@H]1CC[C@@H](Nc2ncnc3[nH]ccc23)CN1S(=O)(=O)c1c(F)c(F)c(F)c(F)c1F [Compound 3A-25, N-((3R,6S)-6-methyl-1-((perfluorophenyl)sulfonyl)piperidin-3-yl)-7H-pyrrolo[2,3-d]pyrimidin-4-amine]

IC50 (BTK [2]; Table 18): 0.1 to 10 nM | IC50 (JAK3): 1000 to 10000 nM
SMILES: O=S(=O)(NCCNc1ncnc2[nH]ccc12)c1c(F)c(F)c(F)c(F)c1F [Compound 3A-27, N-(2-((7H-pyrrolo[2,3-d]pyrimidin-4-yl)amino)ethyl)-2,3,4,5,6-pentafluorobenzene sulfonamide]

IC50 (BTK [2]; Table 18): 100 to 1000 nM | IC50 (JAK3): 1000 to 10000 nM
SMILES: CN(CCNc1ncnc2[nH]ccc12)S(=O)(=O)c1c(F)c(F)c(F)c(F)c1F [Compound 3A-28, N-(2-((7H-pyrrolo[2,3-d]pyrimidin-4-yl)amino)ethyl)-2,3,4,5,6-pentafluoro-N-methylbenzenesulfonamide]

IC50 [3]: 1.61 µM | IC50 [4]: 1000 to 10000 nM | −Log Pe [7]: B (>5 to ≤6) | inhibition at 0.296 µM (BTK [1]; 3-h incubation, 40 nM BTK, 296 nM compound, read-out: enzyme inhibited irreversibly): > 90% | remaining activity at 0.296 µM (BTK [1]; 3-h incubation, 40 nM BTK, 296 nM compound, relative to DMSO, read-out: residual activity of the enzyme): 7% | inhibition profile by enzyme kinetic analysis (BTK [8]; 0.1 nM BTK, 500 μM ATP): time-dependent inhibition
SMILES: Nc1ncnc2c1c(-c1ccc(Oc3ccccc3)cc1)nn2[C@@H]1CCCN(S(=O)(=O)c2c(F)c(F)c(F)c(F)c2F)C1 [I-A1, (R)-1-(1-((perfluorophenyl)sulfonyl)piperidin-3-yl)-3-(4-phenoxyphenyl)-1H-pyrazolo[3,4-d]pyrimidin-4-amine]
IC50 [5]: 1000 to 10000 nM | mass increase of BTK after incubation (BTK (His-tagged protein)): 595 Da | IC50 [6]: 3.98 µM

IC50 [4]: 1000 to 10000 nM | IC50 (BTK [9]): 100 to 1000 nM
SMILES: Nc1ncnc2c1c(-c1ccc(Oc3ccccc3)cc1)nn2[C@H]1CCCN(S(=O)(=O)c2c(F)c(F)c(F)c(F)c2F)C1 [I-A2, (S)-1-(1-((perfluorophenyl)sulfonyl)piperidin-3-yl)-3-(4-phenoxyphenyl)-1H-pyrazolo[3,4-d]pyrimidin-4-amine]
IC50 [5]: 1000 to 10000 nM

IC50 [4]: 1000 to 10000 nM | IC50 (BTK [9]): 100 to 1000 nM
SMILES: Nc1ncnc2c1c(-c1ccc(Oc3ccccc3)cc1)nn2S(=O)(=O)c1c(F)c(F)c(F)c(F)c1F [I-A3, 1-((perfluorophenyl)sulfonyl)-3-(4-phenoxyphenyl)-1H-pyrazolo[3,4-d]pyrimidin-4-amine]

IC50 (BTK [9]): 10 to 100 nM | −Log Pe [7]: B (>5 to ≤6)
SMILES: Nc1ncnc2c1c(-c1ccc(Oc3ccccc3)cc1)nn2[C@@H]1CCCN(S(=O)(=O)c2cc(F)c(F)c(F)c2F)C1 [I-A4, (R)-3-(4-phenoxyphenyl)-1-(1-((2,3,4,5-tetrafluorophenyl)sulfonyl)piperidin-3-yl)-1H-pyrazolo[3,4-d]pyrimidin-4-amine]
IC50 [5]: > 25000 nM

half-life at 5 μM [10]: 6.94 to 20.8 days | IC50 (BTK [2]; Table 17): 100 to 1000 nM | IC50 (BTK [9]): 100 to 1000 nM | −Log Pe [7]: B (>5 to ≤6) | inhibition profile by enzyme kinetic analysis (BTK [8]; 0.1 nM BTK, 500 μM ATP): linear enzyme reaction rates | IC50 (BTK [8]; fitting of linear reaction rates to a reversible binding model, read-out: IC50 (reversible binding model)): 334 nM
SMILES: Nc1ncnc2c1c(-c1ccc(Oc3ccccc3)cc1)nn2[C@@H]1CCCN(S(=O)(=O)c2c(F)c(F)cc(F)c2F)C1 [I-A5, (R)-3-(4-phenoxyphenyl)-1-(1-((2,3,5,6-tetrafluorophenyl)sulfonyl)piperidin-3-yl)-1H-pyrazolo[3,4-d]pyrimidin-4-amine]
IC50 [5]: > 25000 nM

IC50 [3]: 1 µM | IC50 (BTK [2]; Table 17): 100 to 1000 nM | IC50 (BTK [9]): 100 to 1000 nM | −Log Pe [7]: C (>6 to ≤7) | inhibition profile by enzyme kinetic analysis (BTK [8]; 0.1 nM BTK, 500 μM ATP): time-dependent inhibition | kinact (BTK [8]; 0.1 nM BTK, 500 μM ATP, saturation kinetics): 0.000671 s⁻¹ | Ki (BTK [8]; 0.1 nM BTK, 500 μM ATP, saturation kinetics of irreversible inhibition): 71.3 nM
SMILES: Nc1ncnc2c1c(-c1ccc(Oc3ccccc3)cc1)nn2[C@@H]1CCCN(S(=O)(=O)c2c(F)c(F)c(F)c(F)c2OC2CC2)C1 [I-A6, (R)-1-(1-((2-cyclopropoxy-3,4,5,6-tetrafluorophenyl)sulfonyl)piperidin-3-yl)-3-(4-phenoxyphenyl)-1H-pyrazolo[3,4-d]pyrimidin-4-amine]
IC50 [5]: > 25000 nM | IC50 [6]: > 25 µM

−Log Pe [7]: C (>6 to ≤7)
SMILES: Nc1ncnc2c1c(-c1ccc(Oc3ccccc3)cc1)nn2[C@@H]1CCCN(S(=O)(=O)c2c(OC3CC3)c(F)c(F)c(F)c2OC2CC2)C1 [I-A7, (R)-1-(1-((2,6-dicyclopropoxy-3,4,5-trifluorophenyl)sulfonyl)piperidin-3-yl)-3-(4-phenoxyphenyl)-1H-pyrazolo[3,4-d]pyrimidin-4-amine]
IC50 [5]: > 25000 nM

IC50 [3]: 10.3 µM | IC50 [4]: 10000 to 30000 nM
SMILES: C=CC(=O)N1CCC[C@@H](n2nc(-c3ccc(Oc4ccccc4)cc3)c3c(N)ncnc32)C1 [Ibrutinib, reference compound]
IC50 [5]: 10000 to 25000 nM | IC50 [6]: 26.8 µM
